Data as given in patent publication US11173126B2, “Nanoalum particles comprising a PAA sizing agent” (priority 2016, dated 2021).

How the values were obtained:
[1] = Particle size (Z-ave) and polydispersity by dynamic light scattering; type: physicochemical; details: single non-pegylated phospholipid included during milling; data not shown
C57Bl/6 mice = details: mouse, in vivo
C57/BL6 mice = details: mouse, in vivo

Compound	effectiveness as sizing agent (aggregation of alum) [1]	ID97-specific CD4+ T cell response (CD154, IFN-γ, TNF, IL-2) (C57Bl/6 mice)	luciferase expression from RNA replicon (C57/BL6 mice)
CCCCCCCCCCCCCC(=O)OC[C@H](COP(=O)(O)OCCN)OC(=O)CCCCCCCCCCCCC [DMPE]	not found to be effective sizing agents		
Poly(acrylic acid) [PAA]		low frequency	does not deliver and/or induce an expressible level
Distearoylglycerophosphoethanolamine [DSPE]	not found to be effective sizing agents		
